Results from patent publication US11802128B2, “Azetidine and pyrrolidine PARP1 inhibitors and uses thereof” (Xinthera, Inc., priority 2021, dated 2023).

What was measured:
[1] = test system: MDA-MB-436 (mutated BRCA1) cells; assay: Cell growth inhibition assay (CellTiter-Glo cell viability, 7 days); format: cell-based; conditions: Homo sapiens, 168 h, MDA-MB-436, 7 days
Description: (§1) The objective of this study is to evaluate the effect of invention compounds on cell proliferation through the cell viability assay in DLD-1 BRCA2(−/−) and parental isogenic pair and MDA-MB-436 (mutated BRCA1) cell lines. The CellTiter-Glo (CTG) based cell viability assay is designed to determine the number of viable cells in the culture because of compound effect, by quantifying ATP, which indicates the presence of metabolically active cells.
(§2) DLD-1 BRCA2(−/−) and parental isogenic pair were cultured in RPMI 1640 supplemented with 10% fetal bovine serum (FBS), and MDA-MB-436 cells were cultured in DMEM supplemented with 10% FBS. Both are culture at 37° C. with 5% CO2. Invention compounds were distributed to the 384 well plate (Corning, 3764) using Echo acoustic liquid handler to form a 1:3 serially diluted final concentration with top dose of 10 or 30 μM. The cells were seeded into the plate in the density of 50 cells/well (DLD-1 parental), 200 cells/well (DLD-1 BRCA2−/−), or 500 cells/well (MDA-MB-436). After a short spun, the cells were cultured in a well moisturized incubator at 37° C. with 5% CO2 for 7 days without disturbance. The cell viability was measured by CellTiter Glo 2.0 assay kit (Promega, G9243), and growth inhibition rate was calculated and plotted against final compound concentration, and the data were fitted in Xfit to generate IC50.

DLD-1 BRCA2(−/−) cells = assay: as above; format: cell-based; conditions: Homo sapiens, 168 h
Description: as §1, §2

EC50 [1] [nM]	EC50 (DLD-1 BRCA2(−/−) cells) [nM]	Structure (SMILES)
> 1000	> 1000	CCc1cc2ncc(CN3CC[C@H](Oc4ccc(C(=O)NC)nc4)C3)cc2[nH]c1=O [Example 1, 5-{[(3S)-1-[(7-ethyl-6-oxo-5H-1,5-naphthyridin-3-yl)methyl]pyrrolidin-3-yl]oxy}-N-methylpyridine-2-carboxamide]
> 1000	> 1000	CCc1cc2ncc(CN3C[C@@H](F)[C@H](Oc4ccc(C(=O)NC)nc4)C3)cc2[nH]c1=O [Example 5, 5-{[(3R,4R)-1-[(7-ethyl-6-oxo-5H-1,5-naphthyridin-3-yl)methyl]-4-fluoropyrrolidin-3-yl]oxy}-N-methylpyridine-2-carboxamide]
42	73	CCc1cc2ncc(CN3C[C@H](Oc4ccc(C(=O)NC)nc4)[C@@H](F)C3)cc2[nH]c1=O [Example 6, 5-(((3S,4S)-1-((7-ethyl-6-oxo-5,6-dihydro-1,5-naphthyridin-3-yl)methyl)-4-fluoropyrrolidin-3-yl)oxy)-N-methylpicolinamide]
–	> 1000	CCc1cc2ncc(CN3C[C@H](F)[C@H](Oc4ccc(C(=O)NC)nc4)C3)cc2[nH]c1=O [Example 8, 5-{[(3R,4S)-1-[(7-ethyl-6-oxo-5H-1,5-naphthyridin-3-yl)methyl]-4-fluoropyrrolidin-3-yl]oxy}-N-methylpyridine-2-carboxamide]
25	72	CCc1cc2ncc(CN3C[C@@H](F)[C@@H](Oc4ccc(C(=O)NC)nc4)C3)cc2[nH]c1=O [Example 9, 5-(((3S,4R)-1-((7-ethyl-6-oxo-5,6-dihydro-1,5-naphthyridin-3-yl)methyl)-4-fluoropyrrolidin-3-yl)oxy)-N-methylpicolinamide]
19	28	CCc1cc2ncc(CN3CC[C@@H](N(C)c4ccc(C(=O)NC)nc4)C3)cc2[nH]c1=O [Example 11, 5-{[(3R)-1-[(7-ethyl-6-oxo-5H-1,5-naphthyridin-3-yl)methyl]pyrrolidin-3-yl](methyl)amino}-N-methylpyridine-2-carboxamide]
12	38	CCc1cc2ncc(CN3CC[C@@H](Cc4ccc(C(=O)NC)nc4)C3)cc2[nH]c1=O [Example 13, 5-{[(3R)-1-[(7-ethyl-6-oxo-5H-1,5-naphthyridin-3-yl)methyl]pyrrolidin-3-yl]methyl}-N-methylpyridine-2-carboxamide]
–	> 1000	CCc1cc2ncc(CN3CC(C)(Oc4ccc(C(=O)NC)nc4)C3)cc2[nH]c1=O [Example 15, 5-({1-[(7-ethyl-6-oxo-5H-1,5-naphthyridin-3-yl)methyl]-3-methylazetidin-3-yl}oxy)-N-methylpyridine-2-carboxamide]
18	49	CNC(=O)c1ccc(OC2CN(Cc3cnc4cc(C5CC5)c(=O)[nH]c4c3)C2)cn1 [Example 16, 5-({1-[(7-cyclopropyl-6-oxo-5H-1,5-naphthyridin-3-yl)methyl]azetidin-3-yl}oxy)-N-methylpyridine-2-carboxamide]
> 1000	> 1000	CCc1cc2ncc(CN3C[C@@H](Oc4ccc(C(=O)NC)nc4)[C@@H]3C)cc2[nH]c1=O [Example 18, 5-{[(2S,3R)-1-[(7-ethyl-6-oxo-5H-1,5-naphthyridin-3-yl)methyl]-2-methylazetidin-3-yl]oxy}-N-methylpyridine-2-carboxamide]
> 1000	> 1000	CCc1cc2ncc(CN3C[C@@H](Oc4ccc(C(=O)NC)nc4)[C@H]3C)cc2[nH]c1=O [Example 19, 5-{[(2R,3R)-1-[(7-ethyl-6-oxo-5H-1,5-naphthyridin-3-yl)methyl]-2-methylazetidin-3-yl]oxy}-N-methylpyridine-2-carboxamide]
0.65	0.97	CCNC(=O)c1ccc(O[C@H]2CN(Cc3cnc4cc(CC)c(=O)[nH]c4c3)[C@@H]2C)cn1 [Example 67]
0.49	0.89	[2H]C([2H])(c1cnc2cc(CC)c(=O)[nH]c2c1)N1C[C@H](Oc2ccc(C(=O)NC3CC3)nc2)[C@H]1C [Example 71]
1.7	3	Cc1cc2ncc(CN3C[C@H](Oc4ccc(C(=O)N[C@H]5C[C@@H](F)C5)nc4)[C@H]3C)cc2[nH]c1=O [Example 81]
1.3	1.8	Cc1cc2ncc(CN3C[C@H](Oc4ccc(C(=O)NC5CCC5)nc4)[C@H]3C)cc2[nH]c1=O [Example 85]
1.1	1.6	C[C@@H]1[C@@H](Oc2ccc(C(=O)NC3CCC3)nc2)CN1Cc1cnc2cc(C(F)F)c(=O)[nH]c2c1 [Example 92]

More lines, now with the values behind:

Structure (SMILES)	EC50 [1] [nM]	EC50 (DLD-1 BRCA2(−/−) cells) [nM]
CCc1cc2ncc(CN3C[C@H](Oc4ccc(F)cc4C#N)[C@H]3C)cc2[nH]c1=O [Example 65]	91	93
CCc1cc2ncc(CN3C[C@H](Oc4ccc(C#N)c(F)c4)[C@H]3C)cc2[nH]c1=O [Example 68]	18	15
CCc1cc2ncc(CN3C[C@H](Oc4ccc(C#N)cc4F)[C@H]3C)cc2[nH]c1=O [Example 69]	5.6	11
CCc1cc2ncc(CN3C[C@H](Oc4ccc(C#N)cc4C#N)[C@H]3C)cc2[nH]c1=O [Example 72]	50	33
C[C@@H]1[C@@H](Oc2ccc(C#N)nc2)CN1Cc1cnc2cc(Cl)c(=O)[nH]c2c1 [Example 78]	35	32
CCc1cc2ncc(CN3C[C@H](Oc4ccc(C(=O)NC5CC5)nc4C#N)[C@H]3C)cc2[nH]c1=O [Example 79]	1.9	6.3
CCc1cc2ncc(CN3C[C@H](n4ccc5nc(C#N)ccc54)[C@H]3C)cc2[nH]c1=O [Example 83]	11	22
CCc1cc2ncc(CN3C[C@H](n4ccc5nc(C(=O)NC6CC6)ccc54)[C@H]3C)cc2[nH]c1=O [Example 86]	1.8	3.4
CNC(=O)c1ccc2c(ccn2[C@H]2CN(Cc3ccc4[nH]c(=O)c(C5CC5)cc4n3)[C@@H]2C)n1 [Example 87]	12	20
CCNC(=O)c1ccc2c(ccn2[C@H]2CN(Cc3cnc4cc(CC)c(=O)[nH]c4c3)[C@@H]2C)n1 [Example 88]	3.4	6.3
CCc1nc2ccc(CN3C[C@H](Oc4ccc(C(=O)NC)nc4)[C@H]3C)c(F)c2[nH]c1=O [Example 93]	5	7.2
Cc1nc2ccc(CN3C[C@H](Oc4ccc(C(=O)NC5CC5)nc4)[C@H]3C)c(F)c2[nH]c1=O [Example 94]	11	43
CCc1nc2ccc(CN3C[C@H](Oc4ccc(C(=O)NC5CC5)nc4)[C@H]3C)c(F)c2[nH]c1=O [Example 95]	3.2	3.5
CNC(=O)c1ccc2c(ccn2[C@H]2CN(Cc3ccc4nc(C)c(=O)[nH]c4c3F)[C@@H]2C)n1 [Example 96]	> 1000	> 1000
CNC(=O)c1ccc(O[C@H]2CN(Cc3ccc4nc(C5CC5)c(=O)[nH]c4c3F)[C@@H]2C)cn1 [Example 97]	21	34
CNC(=O)c1ccc(O[C@H]2CN(Cc3ccc4nc(C)c(=O)[nH]c4c3F)[C@@H]2C)c(F)n1 [Example 98]	29	61
C[C@@H]1[C@@H](Oc2ccc(C(=O)NC3CC3)nc2)CN1Cc1ccc2cc(Cl)c(=O)[nH]c2c1F [Example 99]	1.7	4
